Test results from ChEMBL document CHEMBL6071152, “Design, synthesis, and biological evaluation of oridonin derivatives as novel NLRP3 inflammasome inhibitors for the treatment of acute lung injury” (Eur J Med Chem, 2024).
The source made the active and inactive calls. The rule behind the calls is not given here.

Tests used:
[1] = molecular target: NACHT, LRR and PYD domains-containing protein 3 (Mus musculus, UniProt Q8R4B8); experiment: Inhibition of NLRP3 inflammasome activation in ICR mouse BMDM assessed as inhibition of LPS/ATP-stimulated IL-1 beta production in cell supernatant treated for 3 hrs with LPS followed by incubation with compound for 1 hr and later stimulated with ATP for 0.5 hrs by ELISA; format: cell-based
[2] = Cytotoxicity against ICR mouse BMDM assessed as reduction in cell viability incubated for 24 hrs by CCK8 assay; format: toxicity, cell-based; conditions: BMDM (bone marrow-derived macrophages)
Mus musculus [3] = experiment: Anti-inflammatory activity against LPS-stimulated acute lung injury C57BL/6 mouse model assessed as decrease in weight loss at 1 mg/kg, ip treated for 3 days and on third day administered with LPS at 30 mins post-compound challenge; format: functional, organism-based; conditions: time 3.0 day
Mus musculus [4] = experiment: Anti-inflammatory activity against LPS-stimulated acute lung injury C57BL/6 mouse model assessed as active animal at 5 mg/kg, ip treated for 3 days and on third day administered with LPS at 30 mins post-compound challenge; format: functional, organism-based; conditions: time 3.0 day
Mus musculus [5] = experiment: (§1) Anti-inflammatory activity against LPS-stimulated acute lung injury C57BL/6 mouse model assessed as decrease in weight loss at 5 mg/kg, ip treated for 3 days and on third day administered with LPS at 30 mins post-compound challenge; format: functional, organism-based; conditions: time 3.0 day
Mus musculus [6] = experiment: as §1, with “inflammatory cell infiltration in right lung” for “weight loss”, “challenge and measured after 12 hrs by Hematoxylin-Eosin staining analysis” for “challenge”; format: functional, organism-based; conditions: time 3.5 day
Mus musculus [7] = experiment: as §1, with “alveolar dilation in right lung” for “weight loss”, “challenge and measured after 12 hrs by Hematoxylin-Eosin staining analysis” for “challenge”; format: functional, organism-based; conditions: time 3.5 day
Mus musculus [8] = experiment: as §1, with “thickening of alveolar septa in right lung” for “weight loss”, “challenge and measured after 12 hrs by Hematoxylin-Eosin staining analysis” for “challenge”; format: functional, organism-based; conditions: time 3.5 day
Mus musculus [9] = experiment: as §1, with “partial alveolar congestion in right lung” for “weight loss”, “challenge and measured after 12 hrs by Hematoxylin-Eosin staining analysis” for “challenge”; format: functional, organism-based; conditions: time 3.5 day

Sequence of NACHT, LRR and PYD domains-containing protein 3 (Q8R4B8 whole entry, the tested form may be a part): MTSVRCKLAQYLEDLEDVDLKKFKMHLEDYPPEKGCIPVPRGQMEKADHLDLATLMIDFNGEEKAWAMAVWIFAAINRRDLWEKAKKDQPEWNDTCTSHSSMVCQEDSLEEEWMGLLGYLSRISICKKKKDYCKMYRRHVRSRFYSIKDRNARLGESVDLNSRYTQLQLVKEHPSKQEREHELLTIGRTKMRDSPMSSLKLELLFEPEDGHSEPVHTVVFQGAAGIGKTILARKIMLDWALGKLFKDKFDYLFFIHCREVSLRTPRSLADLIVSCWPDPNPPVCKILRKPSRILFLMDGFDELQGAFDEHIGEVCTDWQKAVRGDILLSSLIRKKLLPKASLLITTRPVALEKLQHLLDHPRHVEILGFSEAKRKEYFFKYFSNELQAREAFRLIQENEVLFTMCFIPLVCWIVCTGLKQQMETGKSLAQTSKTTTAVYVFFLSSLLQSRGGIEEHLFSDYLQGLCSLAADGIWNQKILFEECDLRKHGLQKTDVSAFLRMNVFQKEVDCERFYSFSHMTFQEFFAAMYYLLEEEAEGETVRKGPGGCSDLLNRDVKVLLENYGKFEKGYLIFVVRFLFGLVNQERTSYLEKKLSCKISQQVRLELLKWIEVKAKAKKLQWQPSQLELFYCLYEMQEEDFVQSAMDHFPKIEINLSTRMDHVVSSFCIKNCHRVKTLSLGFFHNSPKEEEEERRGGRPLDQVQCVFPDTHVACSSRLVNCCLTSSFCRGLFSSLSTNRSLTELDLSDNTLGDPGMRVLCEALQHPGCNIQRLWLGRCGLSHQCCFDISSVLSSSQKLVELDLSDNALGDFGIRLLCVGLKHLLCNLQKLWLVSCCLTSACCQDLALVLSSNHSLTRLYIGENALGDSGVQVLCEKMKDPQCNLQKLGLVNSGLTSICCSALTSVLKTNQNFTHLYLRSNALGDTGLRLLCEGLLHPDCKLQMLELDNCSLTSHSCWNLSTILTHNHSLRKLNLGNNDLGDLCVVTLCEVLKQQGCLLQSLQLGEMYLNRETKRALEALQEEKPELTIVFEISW

Question: With C=C1C(=O)[C@]23[C@H](OC(=O)NC4CCCCC4)[C@H]1CC[C@H]2[C@]12C=CCC(C)(C)[C@H]1[C@H](O)[C@@]3(O)OC2 as the molecule, how does the IC50 [1] read?
Answer: 135 nM

Question: What about the IC50 at 24 h [2] of the same molecule?
Answer: > 10000 nM

Question: For C=C1C(=O)[C@]23[C@H](OC(=O)Nc4ccccc4Cl)[C@H]1CC[C@H]2[C@]12C=CCC(C)(C)[C@H]1[C@H](O)[C@@]3(O)OC2, which IC50 [1] is on record?
Answer: 88.6 nM

Question: What about the IC50 at 24 h [2] of the same molecule?
Answer: > 10000 nM

Question: For C=C1C(=O)[C@]23[C@H](OC(=O)Nc4cccc(Cl)c4)[C@H]1CC[C@H]2[C@]12C=CCC(C)(C)[C@H]1[C@H](O)[C@@]3(O)OC2, which IC50 [1] is on record?
Answer: 80.8 nM

Question: What about the IC50 at 24 h [2] of the same molecule?
Answer: > 10000 nM

Question: With C=C1C(=O)[C@]23[C@H](OC(=O)Nc4cccc5ccccc45)[C@H]1CC[C@H]2[C@]12C=CCC(C)(C)[C@H]1[C@H](O)[C@@]3(O)OC2 as the molecule, how does the IC50 [1] read?
Answer: 74.9 nM

Question: What about the IC50 at 24 h [2] of the same molecule?
Answer: > 10000 nM

Question: With CC(C)(O)c1coc(S(=O)(=O)NC(=O)Nc2c3c(cc4c2CCC4)CCC3)c1 as the molecule, how does the IC50 at 24 h [2] read?
Answer: > 10000 nM

Question: Which IC50 [1] does the source give for C=C1C(=O)[C@]23[C@H](OC(=O)NC4CCCC4)[C@H]1CC[C@H]2[C@]12C=CCC(C)(C)[C@H]1[C@H](O)[C@@]3(O)OC2 here?
Answer: 178 nM

Question: And the IC50 at 24 h [2]?
Answer: > 10000 nM

Question: For C=C1C(=O)[C@]23[C@H](O)[C@H]1CC[C@H]2[C@@]12CO[C@]3(O)[C@@H](O)[C@@H]1C(C)(C)CC[C@@H]2O [ORIDONIN], which IC50 [1] is on record?
Answer: 1240 nM

Question: And the IC50 at 24 h [2]?
Answer: > 10000 nM

Question: And the Activity (Mus musculus [3])?
Answer: Active

Question: Which results are given for C=C1C(=O)[C@]23[C@H](O)[C@H]1CC[C@H]2[C@]12C=CCC(C)(C)[C@H]1[C@H](O)[C@@]3(O)OC2?
Answer: IC50 [1]: 131 nM; IC50 at 24 h [2]: > 10000 nM

Question: With C[C@@H]1C[C@H]2[C@@H]3CCC4=CC(=O)C=C[C@]4(C)[C@@]3(F)[C@@H](O)C[C@]2(C)[C@@]1(O)C(=O)CO as the molecule, how does the Activity (Mus musculus [4]) read?
Answer: Active

Question: What about the Activity (Mus musculus [5]) of the same molecule?
Answer: Active

Question: And the Activity (Mus musculus [6])?
Answer: Active

Question: What about the Activity (Mus musculus [7]) of the same molecule?
Answer: Active

Question: And the Activity (Mus musculus [8])?
Answer: Active

Question: What about the Activity (Mus musculus [9]) of the same molecule?
Answer: Active

Question: For C=C1C(=O)[C@]23[C@H](OC(=O)Nc4ccccn4)[C@H]1CC[C@H]2[C@]12C=CCC(C)(C)[C@H]1[C@H](O)[C@@]3(O)OC2, which IC50 [1] is on record?
Answer: 96.1 nM

Question: What about the IC50 at 24 h [2] of the same molecule?
Answer: > 10000 nM
